Results reported in PubChem BioAssay (NCI).
Values joined by “and” are separate entries in the source; they are usually repeats but may differ in a detail not shown here. Identical values can stand only once.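 These data come from cells grown in 96-well plates and exposed to compound for 48 hours at five concentrations. At the GI50, growth is halved. TGI is the concentration that stops growth completely.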

Columns and labels:
Assay in all cases: NCI anticancer screen, dose series, 48 h
COLO 205 colon = system: COLO 205 colon
SF-268 CNS = system: SF-268 CNS
HL-60(TB) leukemia = system: HL-60(TB) leukemia
786-0 renal = system: 786-0 renal
CCRF-CEM leukemia = system: CCRF-CEM leukemia
SNB-75 CNS = system: SNB-75 CNS
HCT-116 colon = system: HCT-116 colon
RXF 393 renal = system: RXF 393 renal
K-562 leukemia = system: K-562 leukemia
OVCAR-8 ovarian = system: OVCAR-8 ovarian
HOP-92 NSCLC = system: HOP-92 NSCLC
SW-620 colon = system: SW-620 colon
MDA-MB-231 breast = system: MDA-MB-231 breast
MOLT-4 leukemia = system: MOLT-4 leukemia
SK-MEL-28 melanoma = system: SK-MEL-28 melanoma
SF-539 CNS = system: SF-539 CNS
UACC-257 melanoma = system: UACC-257 melanoma
OVCAR-3 ovarian = system: OVCAR-3 ovarian
NCI/ADR-RES ovarian = system: NCI/ADR-RES ovarian
KM12 colon = system: KM12 colon
OVCAR-5 ovarian = system: OVCAR-5 ovarian
ACHN renal = system: ACHN renal
HCT-15 colon = system: HCT-15 colon
U251 CNS = system: U251 CNS
LOX IMVI melanoma = system: LOX IMVI melanoma
NCI-H522 lung = system: NCI-H522 lung
MDA-MB-435 = system: MDA-MB-435
SK-MEL-2 melanoma = system: SK-MEL-2 melanoma
IGROV1 ovarian = system: IGROV1 ovarian

C[C@]12CC[C@H](OC3OC(O)C(O)C(O)C3O)C=C1CCC1C2CC[C@]2(C)[C@@H](c3ccc(=O)oc3)CC[C@]12O (some centres not stated)
GI50 (COLO 205 colon): 15.3 nM and 7.93 nM
TGI (COLO 205 colon): 35.8 nM and 17.1 nM
GI50 (SF-268 CNS): 3.73 nM and 5 nM
TGI (SF-268 CNS): 12.8 nM and 6.07 nM
GI50 (HL-60(TB) leukemia): 2.27 nM
TGI (HL-60(TB) leukemia): 5.12 nM
GI50 (786-0 renal): 2.59 nM and 5 nM
TGI (786-0 renal): 7 nM and 5.73 nM
GI50 (CCRF-CEM leukemia): 5 nM
TGI (CCRF-CEM leukemia): 50000 nM
GI50 (SNB-75 CNS): 3.21 nM and 5 nM
TGI (SNB-75 CNS): 15.7 nM and 6.16 nM
GI50 (HCT-116 colon): 3.62 nM and 5 nM
TGI (HCT-116 colon): 11.9 nM and 6.71 nM
GI50 (RXF 393 renal): 1.79 nM
TGI (RXF 393 renal): 3.9 nM
GI50 (K-562 leukemia): 4.06 nM
TGI (K-562 leukemia): 18.1 nM
GI50 (OVCAR-8 ovarian): 3.67 nM and 5 nM
TGI (OVCAR-8 ovarian): 16.8 nM and 7.2 nM
GI50 (HOP-92 NSCLC): 3.94 nM and 7.24 nM
TGI (HOP-92 NSCLC): 34.2 nM and 29.2 nM
GI50 (SW-620 colon): 4.45 nM and 5 nM
TGI (SW-620 colon): 25.4 nM and 15.4 nM
GI50 (MDA-MB-231 breast): 19.4 nM and 15.6 nM
TGI (MDA-MB-231 breast): 100 nM and 60.2 nM
GI50 (MOLT-4 leukemia): 2.34 nM
TGI (MOLT-4 leukemia): 5.3 nM
GI50 (SK-MEL-28 melanoma): 5.85 nM and 6.06 nM
TGI (SK-MEL-28 melanoma): 20 nM and 13.8 nM
GI50 (SF-539 CNS): 2.62 nM and 5 nM
TGI (SF-539 CNS): 6.21 nM and 5.68 nM
GI50 (UACC-257 melanoma): 10.6 nM and 5.17 nM
TGI (UACC-257 melanoma): 24.2 nM and 11.5 nM
GI50 (OVCAR-3 ovarian): 3.8 nM and 5 nM
TGI (OVCAR-3 ovarian): 12.1 nM and 6.38 nM
GI50 (NCI/ADR-RES ovarian): 2.64 nM and 5 nM
TGI (NCI/ADR-RES ovarian): 7.55 nM and 6.47 nM
GI50 (KM12 colon): 4.87 nM and 5 nM
TGI (KM12 colon): 25.8 nM and 26.6 nM
GI50 (OVCAR-5 ovarian): 8.01 nM and 5 nM
TGI (OVCAR-5 ovarian): 25.2 nM and 11.9 nM
GI50 (ACHN renal): 3.49 nM and 5 nM
TGI (ACHN renal): 11.9 nM and 5.78 nM
GI50 (HCT-15 colon): 4.65 nM and 5 nM
TGI (HCT-15 colon): 21.8 nM and 15.5 nM
GI50 (U251 CNS): 3.82 nM and 5 nM
TGI (U251 CNS): 14.1 nM and 9.03 nM
GI50 (LOX IMVI melanoma): 3.33 nM and 5 nM
TGI (LOX IMVI melanoma): 12 nM and 7.7 nM
GI50 (NCI-H522 lung): 2.86 nM
TGI (NCI-H522 lung): 11.4 nM
GI50 (MDA-MB-435): 4.03 nM and 5.78 nM
TGI (MDA-MB-435): 21.2 nM and 19.2 nM
GI50 (SK-MEL-2 melanoma): 3.53 nM and 7.62 nM
TGI (SK-MEL-2 melanoma): 10.3 nM and 17.7 nM
GI50 (IGROV1 ovarian): 4.64 nM and 5 nM
